Source: patent US20240197762A1, “NUTRITIONAL COMPOSITION FOR STIMULATIONG BIFIDOBACTERIA” (FrieslandCampina Nederland B.V., priority 2021, published 2024)

Tested on: bifidobacteria (B. adolescentis and B. longum)
Assay: Fecal fermentations simulating the distal colon of elderly (microMatrix, shotgun metagenomics)
Type: cell-based, human (pool of fecal material of healthy 70+ human subjects)
Conditions: oligosaccharides at 0.5 wt % final concentration, 7 hours of fermentation, pH 6.8, 37° C., compared to the blanc; FIG. 1
Protocol: Fecal fermentations were performed in a 24 well plate using the microMatrix™ (Applikon Biotechnology) as described in M. M. O'Donnell et al., Front. Microbiol., vol. 9, Aug. 10, 2018, article 1844. The wells were filled in the anaerobic chamber with medium (composition: see Table 1) to which the oligosaccharides GOS (Biotis™ GOS ex-FrieslandCampina), 2′-FL (Aequival™ 2′-FL, ex-FrieslandCampina), or mixtures thereof were added at a final concentration of 0 (blanc) or 0.5 wt % (every condition in duplicate). The plate was put in the microMatrix™ for about 20 minutes to reduce the dissolved oxygen concentration to below 5% and to increase the temperature of the medium to 37° C. After these 20 minutes, the plate was inoculated with a pool of fecal material of healthy 70+ human subjects and fermentations were started. During the fermentations, the pH of was controlled at pH 6.8 with a dead zone of 0.1 using ammonium gas and CO2. The plates were orbitally shaken at 300 rpm. Mixed gas (CO2/H2/N2: 10/5/85) was used to keep the cultures anaerobic during fermentation. After 7 hours of fermentation a sample of 1 ml was taken. Fecal samples of eight healthy elderly were included in the pool. […]

Substance: 2′-fucosyllactose [2′-FL]
- relative abundance of B. adolescentis and B. longum and their combined amount, relative to total bacteria content: increased
